Where “and” joins values, the source holds several entries; their conditions need not be identical. Equal values may be shown once.
Assay: molar heat capacity at constant volume
Conditions: Vacuum adiabatic calorimetry

CC(C)O [propan-2-ol]
Fluid (supercritical or subcritical phases)
Conditions	molar heat capacity at constant volume
314.29 K, Mass density=329.2 kg/m3	177.46 J/K/mol
314.52 K, Mass density=329.2 kg/m3	182.81 J/K/mol
314.8 K, Mass density=329.2 kg/m3	184.67 J/K/mol
315.05 K, Mass density=329.2 kg/m3	181.49 J/K/mol
315.3 K, Mass density=329.2 kg/m3	177.88 J/K/mol
315.42 K, Mass density=329.2 kg/m3	176.26 J/K/mol
315.61 K, Mass density=329.2 kg/m3	174.88 J/K/mol
315.8 K, Mass density=329.2 kg/m3	178.6 J/K/mol
317.44 K, Mass density=697.69 kg/m3	170.85 J/K/mol
317.57 K, Mass density=697.69 kg/m3	172.41 J/K/mol
317.7 K, Mass density=697.69 kg/m3	172.71 J/K/mol
317.95 K, Mass density=697.69 kg/m3	168.15 J/K/mol
318.07 K, Mass density=697.69 kg/m3	168.15 J/K/mol
318.2 K, Mass density=697.69 kg/m3	171.69 J/K/mol
318.32 K, Mass density=697.69 kg/m3	171.33 J/K/mol
318.45 K, Mass density=697.69 kg/m3	173.98 J/K/mol
318.57 K, Mass density=697.69 kg/m3	170.25 J/K/mol
318.7 K, Mass density=697.69 kg/m3	175.24 J/K/mol
331.87 K, Mass density=697.69 kg/m3	192 J/K/mol
332.06 K, Mass density=697.69 kg/m3	191.34 J/K/mol
332.12 K, Mass density=697.69 kg/m3	189.48 J/K/mol
332.24 K, Mass density=697.69 kg/m3	188.82 J/K/mol
332.36 K, Mass density=697.69 kg/m3	187.74 J/K/mol
332.48 K, Mass density=697.69 kg/m3	189.96 J/K/mol
332.6 K, Mass density=697.69 kg/m3	190.26 J/K/mol
332.72 K, Mass density=697.69 kg/m3	187.74 J/K/mol
332.85 K, Mass density=697.69 kg/m3	192.36 J/K/mol
333.03 K, Mass density=697.69 kg/m3	188.7 J/K/mol
340.8 K, Mass density=697.69 kg/m3	195.19 J/K/mol
340.92 K, Mass density=697.69 kg/m3	192.6 J/K/mol
341.04 K, Mass density=697.69 kg/m3	196.99 J/K/mol
341.16 K, Mass density=697.69 kg/m3	193.33 J/K/mol
341.28 K, Mass density=697.69 kg/m3	197.83 J/K/mol
341.4 K, Mass density=697.69 kg/m3	196.15 J/K/mol
341.52 K, Mass density=697.69 kg/m3	194.89 J/K/mol
341.64 K, Mass density=697.69 kg/m3	195.13 J/K/mol
341.76 K, Mass density=697.69 kg/m3	196.21 J/K/mol
341.91 K, Mass density=329.2 kg/m3	203.12 J/K/mol
342.08 K, Mass density=329.2 kg/m3	202.22 J/K/mol
342.19 K, Mass density=329.2 kg/m3	203.54 J/K/mol
342.32 K, Mass density=329.2 kg/m3	207.27 J/K/mol
342.49 K, Mass density=329.2 kg/m3	201.32 J/K/mol
342.67 K, Mass density=329.2 kg/m3	203.72 J/K/mol
342.79 K, Mass density=329.2 kg/m3	202.76 J/K/mol
342.91 K, Mass density=329.2 kg/m3	201.62 J/K/mol
343.03 K, Mass density=329.2 kg/m3	204.08 J/K/mol
355.67 K, Mass density=697.69 kg/m3	207.33 J/K/mol
355.78 K, Mass density=697.69 kg/m3	211.29 J/K/mol
355.9 K, Mass density=697.69 kg/m3	211.9 J/K/mol
356.02 K, Mass density=697.69 kg/m3	209.49 J/K/mol
356.13 K, Mass density=697.69 kg/m3	211.11 J/K/mol
356.25 K, Mass density=697.69 kg/m3	212.68 J/K/mol
356.37 K, Mass density=697.69 kg/m3	211.77 J/K/mol
356.48 K, Mass density=697.69 kg/m3	211.96 J/K/mol
369.05 K, Mass density=329.2 kg/m3	225.9 J/K/mol
369.16 K, Mass density=329.2 kg/m3	220.01 J/K/mol
369.28 K, Mass density=329.2 kg/m3	231.31 J/K/mol
369.39 K, Mass density=329.2 kg/m3	222.83 J/K/mol
369.5 K, Mass density=329.2 kg/m3	225.96 J/K/mol
369.67 K, Mass density=329.2 kg/m3	223.55 J/K/mol
369.84 K, Mass density=329.2 kg/m3	221.75 J/K/mol
369.96 K, Mass density=329.2 kg/m3	221.03 J/K/mol
370.07 K, Mass density=329.2 kg/m3	219.47 J/K/mol
370.24 K, Mass density=697.69 kg/m3	222.11 J/K/mol
370.36 K, Mass density=697.69 kg/m3	222.41 J/K/mol
370.47 K, Mass density=697.69 kg/m3	220.43 J/K/mol
370.58 K, Mass density=697.69 kg/m3	219.77 J/K/mol
370.7 K, Mass density=697.69 kg/m3	222.05 J/K/mol
370.81 K, Mass density=697.69 kg/m3	222.29 J/K/mol
370.92 K, Mass density=697.69 kg/m3	220.61 J/K/mol
371.04 K, Mass density=697.69 kg/m3	221.57 J/K/mol
378.45 K, Mass density=697.69 kg/m3	221.99 J/K/mol
378.57 K, Mass density=697.69 kg/m3	220.67 J/K/mol
378.68 K, Mass density=697.69 kg/m3	223.19 J/K/mol
378.79 K, Mass density=697.69 kg/m3	223.37 J/K/mol
378.9 K, Mass density=697.69 kg/m3	220.97 J/K/mol
379.01 K, Mass density=697.69 kg/m3	222.41 J/K/mol
379.24 K, Mass density=697.69 kg/m3	222.71 J/K/mol
379.35 K, Mass density=697.69 kg/m3	221.33 J/K/mol
379.46 K, Mass density=697.69 kg/m3	221.99 J/K/mol
379.57 K, Mass density=697.69 kg/m3	220.55 J/K/mol
379.68 K, Mass density=697.69 kg/m3	222.53 J/K/mol
379.79 K, Mass density=697.69 kg/m3	221.81 J/K/mol
379.9 K, Mass density=697.69 kg/m3	222.53 J/K/mol
380.02 K, Mass density=697.69 kg/m3	224.03 J/K/mol
380.13 K, Mass density=697.69 kg/m3	223.07 J/K/mol
380.24 K, Mass density=697.69 kg/m3	222.05 J/K/mol
380.35 K, Mass density=697.69 kg/m3	223.97 J/K/mol and 182.81 J/K/mol
380.42 K, Mass density=697.69 kg/m3	185.51 J/K/mol
380.56 K, Mass density=697.69 kg/m3	185.69 J/K/mol
380.68 K, Mass density=697.69 kg/m3	187.44 J/K/mol

Conditions	molar heat capacity at constant volume [J/K/mol]
380.35 K, Liquid	182.81

— the NIST ThermoML archive (doi:10.1016/j.jct.2019.03.023)
